Here are results for 16 compounds from US9708312B2, “Dihydropyrimidinoisoquinolinones and pharmaceutical compositions thereof for the treatment of inflammatory disorders (GPR84 antagonists)” (GALAPAGOS NV, priority 2012, dated 2017).

In assay [1] the target is T1, GPR84 (Homo sapiens, UniProt Q9NQS5).
T1 construct: expressed in transfected cells
Conditions: literature reports; cited from earlier work.

Assay [2] deals with RAW264.7 murine macrophage-like cells. The following applies: RAW264.7 cells stimulated with LPS; cited from earlier work.
Assay [3] has as its target T1, GPR84. Nature of the assay: GPR84 [35S]GTPγS binding assay, Tris buffer (alternative). Type of assay: biochemical. The following applies: 3,3′ di indolylmethane at EC80, membranes from stable cell line over expressing GPR84, read-out: Alternative GPR84 assay GTPγS IC50 (GPR84-2). On the procedure:
1.1. Cell Based Assay: GTp-γ S Binding Assay.
The following assay can be used for determination of GPR84 activation. The [^35S]GTPγS binding assay measures the level of G protein activation following agonist occupation of a GPCR, by determining the binding of the non-hydrolysable analog [^35S]GTPγS to Gα subunits.
Alternatively, the assay is performed in a 96 well plate where the following reagents are added. First 50 μL compound is added into the assay plate, followed by addition of 20 μL 3,3′ di indolylmethane at EC80 concentration (concentration which gives 80% of the activity of GPR84). In a last step, 30 μL of a mixture consisting of membranes-GTPγS-SpA beads is added [mixture consists of 20 μg/well membranes derived from stable cell line over expressing GPR84 (membranes are pre-incubated with 0.1 μM GDP for 15 min at 4° C.), 0.1 nM [^35S]GTPγS (Perkin Elmer, NEG030) and 0.5 mg/well PVT-WGA SpA beads (Perkin Elmer, RPNQ0001)]. All components are diluted in assay buffer containing 20 mM Tris pH 7.5; 5 mM MgCl2; 250 mM NaCl; 0.05% BSA; 75 ug/mL saponin Reactions are incubated for 90 min at room temperature followed by centrifugation at 2000 rpm during 15 min. Plates are read on a Topcount reader (Perkin Elmer) immediately after centrifugation (readout time, 1 min/well).
For orientation: Binding of GTPγS marks nucleotide exchange on a G protein.

In a further assay the test system is human neutrophils. The assay is described as follows: Human neutrophil migration assay (embelin-induced chemotaxis). It counts as cell-based. Conditions: Neutrophil; neutrophils from human buffy coats; embelin at EC80. On the procedure:
2.1. Human Neutrophil Migration Assay
The effect of agonists or antagonists for GPR84 can therefore be assayed in a neutrophil migration test. In the neutrophil migration assay, neutrophils, freshly isolated from buffy coats from human volunteers, are treated with a compound for 30 min Subsequently, the neutrophils are transferred to the upper wells of a Corning HTS transwell 96 permeable support system, of which the lower wells are filled with a embelin solution at EC80 (concentration which gives 80% of the activity of GPR84). After 1 h of incubation, migration of the neutrophils towards embelin in the lower compartment can be quantified by measuring the ATP-content of the lower wells using the ATPlite luminescence ATP detection assay system (Perkin Elmer, Cat. No.: 436110).
2.1.1 Isolation of Neutrophils from Human Buffy Coat
A human buffy coat is diluted with an equal volume of ice cold DPBS. 20 mL of the diluted buffy coat is gently mixed with 4 mL of ACD buffer (140 mM citric acid, 200 mM sodium citrate and 220 mM dextrose). Then, 12 mL of the 6% dextran/0.9% NaCl solution (15 g dextran T2000 and 2.25 g NaCl dissolved in 250 mL H2O) is added to the mixture and the samples are inverted gently up to 20 times. The total volume was transferred to a new recipient and incubated at room temperature for 1 h for complete separation of the two phases to occur. The yellowish supernatant is then transferred to a clean centrifugation tube and centrifuged for 12 min at 1300 rpm and 4° C. After centrifugation, the supernatant is discarded and the remaining cell pellet is rapidly resuspended in 12 mL of ice-cold H2O for red blood cell lysis to occur. After 20 seconds, 4 mL of ice-cold 0.6 M KCl is added. Samples are mixed carefully and centrifuged for 6 min at 1300 rpm, 4° C. The supernatant is discarded and the red blood cell lysis procedure is repeated one more time. Subsequently, the cell pellet is resuspended in 4 mL of DPBS and layered over 5 mL of Lymphoprep (Nycomed Pharma, Cat. No.: 1114545) in a 15 mL centrifuge tube. After centrifugation for 12 min at 1300 rpm, 4° C., the supernatant is removed and the cell pellet, containing the neutrophils, is resuspended in 25 mL chemotaxis buffer (RPMI 1640 medium, supplemented with 10 mM HEPES; freshly made for each experiment)
A cell suspension of 8.9×10^6 cells per milliliter is prepared. 20 μL of compound solution in chemotaxis buffer is added to 180 μL cell suspension. The mixture is incubated at 37° C. for 30 min with intermediate resuspension of the cells after 15 min Following this, 70 μL cell suspension is transferred to the upper compartment of a Corning HTS transwell 96 permeable support system with 5.0 μm pore size polycarbonate membrane (Corning, Cat. No.: 3387). The receiver well of the transwell system is then filled with 200 μL chemotaxis buffer containing compound and chemotactic agent (embelin). After incubation at 37° C. in 5% CO2 for 1 h, the upper plate of the transwell system is removed and the cell suspension in the receiver plate is transferred to a 96-well V-bottom plate. 50 μL of DPBS is added to the receiver plate to prevent remaining cells from drying out. The V-bottom plate is centrifuged for 6 min at 1500 rpm. The supernatant is removed and the cells are resuspended in 50 μL DPBS. The cells are then transferred back to the receiver plate of the transwell system. After this, 100 μL ATPlite solution (Perkin Elmer, Cat. No: 436110) was added to the cells. The plate is incubated for 10 min in the dark, while shaking. […] of cell lysate is then transferred to a white 96-well plate and luminescence is measured. The detected luminescent signal is considered as linearely related to the number of cells having migrated from the upper well to the receiver well.

One may read the IC50 as the concentration needed to halve the response being measured.

T1 sequence (Q9NQS5 whole entry): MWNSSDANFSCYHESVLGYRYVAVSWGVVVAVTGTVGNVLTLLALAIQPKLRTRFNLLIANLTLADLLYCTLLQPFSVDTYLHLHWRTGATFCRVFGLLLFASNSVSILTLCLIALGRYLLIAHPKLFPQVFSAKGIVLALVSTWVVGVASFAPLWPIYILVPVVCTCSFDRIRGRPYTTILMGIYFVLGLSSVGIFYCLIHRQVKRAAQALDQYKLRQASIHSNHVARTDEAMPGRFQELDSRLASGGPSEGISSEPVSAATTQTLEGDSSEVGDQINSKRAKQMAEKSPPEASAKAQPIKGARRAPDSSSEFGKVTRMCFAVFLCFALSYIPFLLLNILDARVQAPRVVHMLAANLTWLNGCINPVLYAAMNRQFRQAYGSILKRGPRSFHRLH

As to `c1ccc2c(Cc3c[nH]c4ccccc34)c[nH]c2c1` [3,3′-diindolylmethane], the GPR84 agonist activity result on GPR84 [1] is listed as “some GPR84 agonist activity”.
For `CCCCCCCCNc1cc(=O)[nH]c(=O)[nH]1` [6-n-octylaminouracil], on GPR84 [1], the GPR84 agonist activity result was “some GPR84 agonist activity”.
For the compound `CCCCCCCCCC(=O)O` [capric acid], the “secretion of interleukin-12 p40 subunit (IL-12 p40)” value (from here on “secretion”) in assay [2] is given as “dose dependently increased”.
`COc1ccc(-c2ccc3c(c2)CCn2c-3cc(OCC3COc4ncccc4O3)nc2=O)cn1` (stereo not shown) [compound 118, 2-(2,3-Dihydro-[1,4]dioxino[2,3-b]pyridin-2-ylmethoxy)-9-(6-methoxy-pyridin-3-yl)-6,7-dihydro-pyrimido[6,1-a]isoquinolin-4-one]: the half-maximal inhibitory concentration (IC50) on GPR84 [3] and in the assay on human neutrophils was 0.01 to 100 nM in each case.
Regarding `O=c1nc(OCC2COc3ncccc3O2)cc2n1CCc1cc(OCc3ccncc3)ccc1-2` (stereo not shown) [compound 122, 2-(2,3-Dihydro-[1,4]dioxino[2,3-b]pyridin-2-ylmethoxy)-9-(pyridin-4-ylmethoxy)-6,7-dihydro-pyrimido[6,1-a]isoquinolin-4-one], the IC50 on GPR84 [3] and in the assay with human neutrophils was 0.01 to 100 nM each time.
Turning to `N#Cc1ccccc1-c1ccc2c(c1)CCn1c-2cc(OCC2COc3ncccc3O2)nc1=O` (stereo not shown) [compound 125, 2-[2-(2,3-Dihydro-[1,4]dioxino[2,3-b]pyridin-2-ylmethoxy)-4-oxo-6,7-dihydro-4H-pyrimido[6,1-a]isoquinolin-9-yl]-benzonitrile], the IC50 on GPR84 [3] lay in the range of 100 to 500 nM; with human neutrophils, 0.01 to 100 nM.
As for `O=c1nc(OCC2COc3ncccc3O2)cc2n1CCc1cc(C#Cc3cccnc3)ccc1-2` (stereo not shown) [compound 131, 2-(2,3-dihydro-[1,4]dioxino[2,3-b]pyridin-2-ylmethoxy)-9-pyridin-3-ylethynyl-6,7-dihydro-pyrimido[6,1-a]isoquinolin-4-one], the IC50 was in the range of 100 to 500 nM at GPR84 [3] and 0.01 to 100 nM with human neutrophils.
For `COCC#Cc1ccc2c(c1)CCn1c-2cc(OCC2COc3ncccc3O2)nc1=O` (stereo not shown) [compound 132, 2-(2,3-dihydro-[1,4]dioxino[2,3-b]pyridin-2-ylmethoxy)-9-(3-methoxy-prop-1-ynyl)-6,7-dihydro-pyrimido[6,1-a]isoquinolin-4-one], the IC50 was in the range of 100 to 500 nM on GPR84 [3] and 0.01 to 100 nM in the assay on human neutrophils.
`Cc1cc(COc2ccc3c(c2)CCn2c-3cc(OCC3COc4ncccc4O3)nc2=O)nn1C` (stereo not shown) [compound 134, 2-(2,3-Dihydro-[1,4]dioxino[2,3-b]pyridin-2-ylmethoxy)-9-(1,5-dimethyl-1H-pyrazol-3-ylmethoxy)-6,7-dihydro-pyrimido[6,1-a]isoquinolin-4-one]: the IC50 at GPR84 [3] and with human neutrophils was 0.01 to 100 nM in each case.
For the compound `O=c1nc(OCC2COc3ncccc3O2)cc2n1CCc1cc(C#Cc3ccncc3)ccc1-2` (stereo not shown) [compound 137, 2-(2,3-dihydro-[1,4]dioxino[2,3-b]pyridin-2-ylmethoxy)-9-pyridin-4-ylethynyl-6,7-dihydro-pyrimido[6,1-a]isoquinolin-4-one], the IC50 at GPR84 [3] and with human neutrophils was 0.01 to 100 nM each time.
On to `Cc1ccc(-c2ccc3c(c2)CCn2c-3cc(OCC3COc4ncccc4O3)nc2=O)cn1` (stereo not shown) [compound 139, 2-(2,3-dihydro-[1,4]dioxino[2,3-b]pyridin-2-ylmethoxy)-9-(6-methyl-pyridin-3-yl)-6,7-dihydro-pyrimido[6,1-a]isoquinolin-4-one], for which the IC50 on GPR84 [3] and in the assay with human neutrophils was 0.01 to 100 nM throughout.
On to `O=c1nc(OCC2COc3ncccc3O2)cc2n1CCc1cc(C#CC3(O)CCCC3)ccc1-2` (stereo not shown) [compound 142, 2-(2,3-Dihydro-[1,4]dioxino[2,3-b]pyridin-2-ylmethoxy)-9-(1-hydroxy-cyclopentylethynyl)-6,7-dihydro-pyrimido[6,1-a]isoquinolin-4-one], for which the IC50 on GPR84 [3] and in the assay with human neutrophils was 0.01 to 100 nM each time.
As for `N#CCCC#Cc1ccc2c(c1)CCn1c-2cc(OCC2COc3ncccc3O2)nc1=O` (stereo not shown) [compound 143, 5-[2-(2,3-dihydro-[1,4]dioxino[2,3-b]pyridin-2-ylmethoxy)-4-oxo-6,7-dihydro-pyrimido[6,1-a]isoquinolin-9-yl]-pent-4-ynenitrile], on GPR84 [3], the IC50 lay within 0.01 to 100 nM.
With `CC(C)(C)C#Cc1ccc2c(c1)CCn1c-2cc(OCC2COc3ncccc3O2)nc1=O` (stereo not shown) [compound 144, 2-(2,3-dihydro-[1,4]dioxino[2,3-b]pyridin-2-ylmethoxy)-9-(3,3-dimethyl-but-1-ynyl)-6,7-dihydro-pyrimido[6,1-a]isoquinolin-4-one], the IC50 at GPR84 [3] was 0.01 to 100 nM.
As to `CCCCCCCCCCCC(=O)O` [lauric acid], the “secretion” value in assay [2] is recorded as “dose dependently increased”.
For the compound `CCCCCCCCCCC(=O)O` [undecanoic acid], the “secretion” value in assay [2] is reported as “dose dependently increased”.
